Values after ≈ are worked out from the molar mass of the structure shown.
Key:
[1] = test system: vancomycin-resistant enterococci; test: broth micro-dilution, mean geometric MIC; format: cell-based, Enterococcus faecium and Enterococcus faecalis; conditions: enterococci, 24-hour incubation
[2] = test system: vancomycin-susceptible enterococci; test: broth micro-dilution, mean geometric MIC; format: cell-based, Enterococcus faecium and Enterococcus faecalis; conditions: enterococci, 24-hour incubation
[3] = test system: Entercoccus faecium 180-1; test: broth micro-dilution MIC; format: cell-based
Description: (§1) The MIC's were determined using a standard broth micro-dilution assay.

[4] = test system: Entercoccus faecium 276; test: broth micro-dilution MIC; format: cell-based
Description: as §1

[5] = test system: Staphylococcus aureus 446; test: broth micro-dilution MIC; format: cell-based
Description: as §1

[6] = test system: Streptococcus pyogenes C203; test: broth micro-dilution MIC; format: cell-based
Description: as §1

[7] = test system: Entercoccus faecium 2041; test: broth micro-dilution MIC; format: cell-based; conditions: Entercoccus faecium 2041
Description: (§2) The formula I compounds have in vitro and in vivo activity against Gram-positive pathogenic bacteria. The MIC's were determined using a standard broth micro-dilution assay.

[8] = test system: Enterococcus gallinarum 245; test: broth micro-dilution MIC; format: cell-based; conditions: Enterococcus gallinarum 245
Description: as §2

[9] = test system: Streptococcus pneumoniae P1; test: broth micro-dilution MIC; format: cell-based
Description: as §2

[10] = test system: Staphylococcus aureus S13E; format: cell-based
Description: as §1

[11] = test system: Staphylococcus aureus SA1199B; format: cell-based
Description: as §1

[12] = test system: Staphylococcus haemolyticus 415; test: broth micro-dilution MIC; format: cell-based
Description: as §2

[13] = test system: Staphylococcus aureus 447; test: broth micro-dilution MIC; format: cell-based
Description: as §1

[14] = test system: Staphylococcus aureus SA1199A; test: broth micro-dilution MIC; format: cell-based
Description: as §1

[15] = test system: Staphylococcus aureus X400; test: broth micro-dilution MIC; format: cell-based
Description: as §1

[16] = test system: Staphylococcus aureus X778; test: broth micro-dilution MIC; format: cell-based
Description: as §1

[17] = test system: Entercoccus faecium 180; test: broth micro-dilution MIC; format: cell-based; conditions: Entercoccus faecium 180
Description: as §2

[18] = test system: Staphylococcus epidermidis 270; test: broth micro-dilution MIC; format: cell-based
Description: as §2

[19] = test system: Staphylococcus haemolyticus 105; test: broth micro-dilution MIC; format: cell-based
Description: as §2

[20] = test system: Staphylococcus aureus SA1199; test: broth micro-dilution MIC; format: cell-based
Description: as §1

SMILES	mean geometric MIC, Vancomycin Resistant Strains [1] [µg/mL]	mean geometric MIC, Vancomycin Sensitive Strains [2] [µg/mL]	MIC [3] [µg/mL]	MIC [4] [µg/mL]	MIC [5] [µg/mL]	MIC [6] [µg/mL]	MIC [8] [µg/mL]	MIC [9] [µg/mL]	MIC [10] [µg/mL]	MIC [17] [µg/mL]	other results
CNC(CC(C)C)C(=O)NC1C(=O)NC(CC(N)=O)C(=O)NC2C(=O)NC3C(=O)NC(C(=O)NC(C(=O)O)c4cc(O)cc(O)c4-c4cc3ccc4O)C(OC3CC(C)(N)C(O)C(C)O3)c3ccc(c(Cl)c3)Oc3cc2cc(c3OC2OC(CO)C(O)C(O)C2OC2CC(C)(NCc3ccc(C(O)c4ccccc4)cc3)C(O)C(C)O2)Oc2ccc(cc2Cl)C1O (stereo not drawn) [Compound 109]	72	0.22									
CCCCCCCCOc1ccc(-c2ccc(CNC3(C)CC(OC4C(Oc5c6cc7cc5Oc5ccc(cc5Cl)C(OC5CC(C)(N)C(O)C(C)O5)C5NC(=O)C(NC(=O)C7NC(=O)C(CC(N)=O)NC(=O)C(NC(=O)C(CC(C)C)NC)C(O)c7ccc(c(Cl)c7)O6)c6ccc(O)c(c6)-c6c(O)cc(O)cc6C(C(=O)O)NC5=O)OC(CO)C(O)C4O)OC(C)C3O)cc2)cc1 (stereo not drawn) [Compound 23]	5.7	2.0	32 (≈ 17 µM)	32 (≈ 17 µM)	38 (≈ 20.1 µM)	1 (≈ 0.53 µM)	8 (≈ 4.24 µM)	0.5 (≈ 0.265 µM)			MIC [7]: 32 µg/mL (≈ 17 µM)
CNC(CC(C)C)C(=O)NC1C(=O)NC(CC(N)=O)C(=O)NC2C(=O)NC3C(=O)NC(C(=O)NC(C(=O)O)c4cc(O)cc(O)c4-c4cc3ccc4O)C(OC3CC(C)(N)C(O)C(C)O3)c3ccc(c(Cl)c3)Oc3cc2cc(c3OC2OC(CO)C(O)C(O)C2OC2CC(C)(NCc3ccc(C(F)(F)F)cc3)C(O)C(C)O2)Oc2ccc(cc2Cl)C1O (stereo not drawn) [Compound 37]	2.4		≤ 0.06	1 (≈ 0.571 µM)	0.5 (≈ 0.286 µM)	≤ 0.06		≤ 0.06	≤ 0.06		MIC [11]: ≤ 0.06 µg/mL; MIC [12]: 1 µg/mL (≈ 0.571 µM)
CNC(CC(C)C)C(=O)NC1C(=O)NC(CC(N)=O)C(=O)NC2C(=O)NC3C(=O)NC(C(=O)NC(C(=O)O)c4cc(O)cc(O)c4-c4cc3ccc4O)C(OC3CC(C)(N)C(O)C(C)O3)c3ccc(c(Cl)c3)Oc3cc2cc(c3OC2OC(CO)C(O)C(O)C2OC2CC(C)(NCc3cc(-c4ccccc4)nc4ccc(OC)cc34)C(O)C(C)O2)Oc2ccc(cc2Cl)C1O (stereo not drawn) [Compound 45]	2.0	0.50									
CNC(CC(C)C)C(=O)NC1C(=O)NC(CC(N)=O)C(=O)NC2C(=O)NC3C(=O)NC(C(=O)NC(C(=O)O)c4cc(O)cc(O)c4-c4cc3ccc4O)C(OC3CC(C)(N)C(O)C(C)O3)c3ccc(c(Cl)c3)Oc3cc2cc(c3OC2OC(CO)C(O)C(O)C2OC2CC(C)(NCc3ccc4c(c3)OCO4)C(O)C(C)O2)Oc2ccc(cc2Cl)C1O (stereo not drawn) [Compound 48]	4.8	0.50									
CNC(CC(C)C)C(=O)NC1C(=O)NC(CC(N)=O)C(=O)NC2C(=O)NC3C(=O)NC(C(=O)NC(C(=O)O)c4cc(O)cc(O)c4-c4cc3ccc4O)C(OC3CC(C)(N)C(O)C(C)O3)c3ccc(c(Cl)c3)Oc3cc2cc(c3OC2OC(CO)C(O)C(O)C2OC2CC(C)(NCCc3cccc(Oc4ccccc4)c3)C(O)C(C)O2)Oc2ccc(cc2Cl)C1O (stereo not drawn) [Compound 62]	9.5	0.22	≤ 0.06	0.5 (≈ 0.28 µM)	2 (≈ 1.12 µM)	≤ 0.06	4 (≈ 2.24 µM)	≤ 0.06	0.5 (≈ 0.28 µM)	4 (≈ 2.24 µM)	MIC [11]: 1 µg/mL (≈ 0.559 µM); MIC [13]: 0.5 µg/mL (≈ 0.28 µM); MIC [14]: ≤ 0.06 µg/mL; MIC [15]: ≤ 0.06 µg/mL; MIC [16]: 0.5 µg/mL (≈ 0.28 µM); MIC [7]: ≤ 0.06 µg/mL; MIC [18]: 1 µg/mL (≈ 0.559 µM); MIC [19]: 2 µg/mL (≈ 1.12 µM)
CCCCCCCCc1ccc(-c2ccc(CNC3(C)CC(OC4C(Oc5c6cc7cc5Oc5ccc(cc5Cl)C(OC5CC(C)(N)C(O)C(C)O5)C5NC(=O)C(NC(=O)C7NC(=O)C(CC(N)=O)NC(=O)C(NC(=O)C(CC(C)C)NC)C(O)c7ccc(c(Cl)c7)O6)c6ccc(O)c(c6)-c6c(O)cc(O)cc6C(C(=O)O)NC5=O)OC(CO)C(O)C4O)OC(C)C3O)cc2)cc1 (stereo not drawn) [Compound 21]		4.3	8 (≈ 4.28 µM)			2 (≈ 1.07 µM)	8 (≈ 4.28 µM)	0.5 (≈ 0.267 µM)		8 (≈ 4.28 µM)	
CCCCCCCCCCCCOc1ccc(CNC2(C)CC(OC3C(Oc4c5cc6cc4Oc4ccc(cc4Cl)C(OC4CC(C)(N)C(O)C(C)O4)C4NC(=O)C(NC(=O)C6NC(=O)C(CC(N)=O)NC(=O)C(NC(=O)C(CC(C)C)NC)C(O)c6ccc(c(Cl)c6)O5)c5ccc(O)c(c5)-c5c(O)cc(O)cc5C(C(=O)O)NC4=O)OC(CO)C(O)C3O)OC(C)C2O)cc1 (stereo not drawn) [Compound 10]		3.5	4 (≈ 2.14 µM)	18 (≈ 9.64 µM)		≤ 0.06	8 (≈ 4.29 µM)	0.125 (≈ 0.067 µM)	8 (≈ 4.29 µM)	8 (≈ 4.29 µM)	MIC [11]: 8 µg/mL (≈ 4.29 µM); MIC [14]: 4 µg/mL (≈ 2.14 µM); MIC [20]: 8 µg/mL (≈ 4.29 µM)
CNC(CC(C)C)C(=O)NC1C(=O)NC(CC(N)=O)C(=O)NC2C(=O)NC3C(=O)NC(C(=O)NC(C(=O)O)c4cc(O)cc(O)c4-c4cc3ccc4O)C(OC3CC(C)(N)C(O)C(C)O3)c3ccc(c(Cl)c3)Oc3cc2cc(c3OC2OC(CO)C(O)C(O)C2OC2CC(C)(NCc3c(O)ccc4ccccc34)C(O)C(C)O2)Oc2ccc(cc2Cl)C1O (stereo not drawn) [Compound 44]	13	0.50									
CNC(CC(C)C)C(=O)NC1C(=O)NC(CC(N)=O)C(=O)NC2C(=O)NC3C(=O)NC(C(=O)NC(C(=O)O)c4cc(O)cc(O)c4-c4cc3ccc4O)C(OC3CC(C)(N)C(O)C(C)O3)c3ccc(c(Cl)c3)Oc3cc2cc(c3OC2OC(CO)C(O)C(O)C2OC2CC(C)(NCC(C)=Cc3ccc(C(C)(C)C)cc3)C(O)C(C)O2)Oc2ccc(cc2Cl)C1O (stereo not drawn) [Compound 42]	1.7	0.089									
CCOC(c1ccccc1)c1ccc(CNC2(C)CC(OC3C(Oc4c5cc6cc4Oc4ccc(cc4Cl)C(OC4CC(C)(N)C(O)C(C)O4)C4NC(=O)C(NC(=O)C6NC(=O)C(CC(N)=O)NC(=O)C(NC(=O)C(CC(C)C)NC)C(O)c6ccc(c(Cl)c6)O5)c5ccc(O)c(c5)-c5c(O)cc(O)cc5C(C(=O)O)NC4=O)OC(CO)C(O)C3O)OC(C)C2O)cc1 (stereo not drawn) [Compound 126]	2.4	0.11	≤ 0.06	1 (≈ 0.55 µM)	2 (≈ 1.1 µM)	≤ 0.06	2 (≈ 1.1 µM)	≤ 0.06	0.5 (≈ 0.275 µM)	1 (≈ 0.55 µM)	MIC [11]: 1 µg/mL (≈ 0.55 µM); MIC [13]: 1 µg/mL (≈ 0.55 µM); MIC [15]: 1 µg/mL (≈ 0.55 µM); MIC [16]: 0.5 µg/mL (≈ 0.275 µM); MIC [7]: ≤ 0.06 µg/mL; MIC [18]: 1 µg/mL (≈ 0.55 µM); MIC [19]: 0.5 µg/mL (≈ 0.275 µM); MIC [12]: 2 µg/mL (≈ 1.1 µM)
CCCCCOc1ccc(-c2ccc(CNC3(C)CC(OC4C(Oc5c6cc7cc5Oc5ccc(cc5Cl)C(OC5CC(C)(N)C(O)C(C)O5)C5NC(=O)C(NC(=O)C7NC(=O)C(CC(N)=O)NC(=O)C(NC(=O)C(CC(C)C)NC)C(O)c7ccc(c(Cl)c7)O6)c6ccc(O)c(c6)-c6c(O)cc(O)cc6C(C(=O)O)NC5=O)OC(CO)C(O)C4O)OC(C)C3O)cc2)cc1 (stereo not drawn) [Compound 40]	0.50	0.31									
CNC(CC(C)C)C(=O)NC1C(=O)NC(CC(N)=O)C(=O)NC2C(=O)NC3C(=O)NC(C(=O)NC(C(=O)O)c4cc(O)cc(O)c4-c4cc3ccc4O)C(OC3CC(C)(N)C(O)C(C)O3)c3ccc(c(Cl)c3)Oc3cc2cc(c3OC2OC(CO)C(O)C(O)C2OC2CC(C)(NCC3CC=CCC3)C(O)C(C)O2)Oc2ccc(cc2Cl)C1O (stereo not drawn) [Compound 47]	4.7	0.57									
CNC(CC(C)C)C(=O)NC1C(=O)NC(CC(N)=O)C(=O)NC2C(=O)NC3C(=O)NC(C(=O)NC(C(=O)O)c4cc(O)cc(O)c4-c4cc3ccc4O)C(OC3CC(C)(N)C(O)C(C)O3)c3ccc(c(Cl)c3)Oc3cc2cc(c3OC2OC(CO)C(O)C(O)C2OC2CC(C)(NCCc3ccc(Cc4ccccc4)cc3)C(O)C(C)O2)Oc2ccc(cc2Cl)C1O (stereo not drawn) [Compound 35]	5.6		≤ 0.06	≤ 0.06	0.5 (≈ 0.28 µM)		≤ 0.06		≤ 0.06	1 (≈ 0.56 µM)	MIC [7]: ≤ 0.06 µg/mL; MIC [18]: 1 µg/mL (≈ 0.56 µM); MIC [19]: 2 µg/mL (≈ 1.12 µM); MIC [12]: 4 µg/mL (≈ 2.24 µM)

From patent US5840684A, “Glycopeptide antibiotic derivatives” (Eli Lilly and Company, priority 1995, dated 1998)
